Laboratory results taken from US5324715A, “Protein for inhibiting collagen-stimulated platelet aggregation” (Merck & Co., Inc., priority 1993, dated 1994).

B1: collagen-stimulated platelet aggregation inhibitor isolated from Haementeria officinalis salivary gland extract (leech antiplatelet protein, LAPP) (protein)
chain: QDEDAGGAGDETSEGEDTTGSDETPSTGGGGDGGNEETITAGNGDCWSKRPGWKLPDNLLTKTEFTSVDECRKMCEESAVEPSCYILQINTETNECYRNNEGDVTWSSLQYDQPNVVQWHLHACSK

Columns and labels:
washed human platelets = assay: Collagen-stimulated platelet aggregation (aggregometer); format: cell-based; settings: 0.25 mM arachidonic acid added later; 2 μg/ml collagen; inhibitor of Examples 1 and 2 present
Protocol: Human platelets are washed in modified Tyrode's buffer with no Ca^++ with 0.2 mg/ml fibrinogen. The washed platelets are incubated at 37° C. for 2 minutes with the sample to be tested. Collagen at 1 or 2 μg/ml final concentration is added and platelet aggregation in an aggregometer is monitored. Inhibitory activity is defined as a decrease in the rate and/or extent of platelet aggregation.
The IC50 for this inhibition was 45 nM. Inhibition of collagen stimulation was overcome by later addition of 0.25 mM arachidonic acid.

Row | Molecule | Inhibition of collagen stimulation of platelet aggregation (by the Haementeria officinalis inhibitor) overcome by later addition (washed human platelets) | IC50 of inhibition of collagen-stimulated platelet aggregation (collagen)
1 | CCCCC/C=C\C/C=C\C/C=C\C/C=C\CCCC(=O)O [arachidonic acid] | overcome | –
2 | B1 | – | 45 nM
